Test results taken from US9017681B2, “Adenylyl cyclases as novel targets for antibactrial interventions” (Cornell Research Foundation, Inc., priority 2007, dated 2015).
Entries after “also recorded” stand apart in the source; their conditions may differ. Where two headings read alike, the source gives them in different places.

Columns and labels:
human sAC [1] = target: T1, human sAC (Homo sapiens, UniProt Q96PN6); assay: in vitro adenylyl cyclase assay with purified human sAC protein (cAMP by Correlate-EIA); type: biochemical; conditions: for inhibition at 100 µM: 100 μM of compound
T1 construct: made in house
T1 sequence (Q96PN6 1-469 limits assumed): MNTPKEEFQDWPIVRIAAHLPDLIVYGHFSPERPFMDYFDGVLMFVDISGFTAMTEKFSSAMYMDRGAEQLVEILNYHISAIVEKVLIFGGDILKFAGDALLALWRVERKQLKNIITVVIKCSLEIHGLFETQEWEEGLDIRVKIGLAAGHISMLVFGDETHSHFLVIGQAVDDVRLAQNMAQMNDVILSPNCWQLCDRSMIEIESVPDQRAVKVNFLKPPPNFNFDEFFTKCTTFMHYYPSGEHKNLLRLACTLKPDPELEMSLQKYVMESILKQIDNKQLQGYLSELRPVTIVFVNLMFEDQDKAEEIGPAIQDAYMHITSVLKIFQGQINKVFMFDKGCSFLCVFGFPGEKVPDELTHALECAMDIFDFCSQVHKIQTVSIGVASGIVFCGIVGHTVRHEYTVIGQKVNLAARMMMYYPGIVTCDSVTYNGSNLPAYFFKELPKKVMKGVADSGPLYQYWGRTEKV
Procedure: Purified human sAC protein was used in an in vitro adenylyl cyclase assay. Purification of the protein is described in detail in Litvin et al. 2003. (J. Biol. Chem. 278:15922-15926). This paper also describes the general conditions for a sAC cyclase assay. The specific conditions for the in vitro assay are as follows.
For basal sAC activity, an assay master mixture with sufficient volume for all reactions was prepared containing:
100 U/ml creatine phosphokinase (CPK)
An aliquot of the master mixture was added to the purified human sAC. The assay mixture also included the indicated concentration of KH compound, or an equivalent volume of vehicle (i.e., DMSO) as control. The reaction was started by adding 5 mM ATP (total assay volume=100 μL). The reaction mixture was incubated at 30° C. for 30 minutes and then stopped by adding 100 μl […]. Stimulated assay conditions involve adding 40 mM bicarbonate and 5 mM CaCl2 to the above master mixture.
(§1) Cyclic AMP levels were measured in each sample using the Correlate-EIA Direct Cyclic AMP assay kit from Assay Designs as per manufacturers instructions.

human sAC [2] = target: T1, human sAC; assay: cellular cAMP accumulation assay in 4-4 cells (hsACt stably transfected into 293T), IBMX; type: cell-based; conditions: for IC50: stable cell line overexpressing human sAC, 500 μM IBMX, read-out: 4-4, Basal approximate IC50 (or the dose range where the IC50 should lie)
Procedure: 293T cells or 4-4 […] stably transfected into 293T) were grown in 75 cm2 Tissue Culture Flasks until nearly confluent using DMEM (10% FBS, 1% L-Glutamine, 1% Penicillin/Streptomycin). Cells were released from the flask with 3 ml of trypsin followed by addition of 7 ml of DMEM to neutralize the trypsin. Cells were mixed by pipetting up and down with 10 ml serological pipette. To a 3 ml aliquot of the cell mixture, 6 ml of DMEM (prewarmed to 37° C.) was added followed by thorough mixing by picking up the entire 9 mls using a repeat pipettor, and slowly pipetting out against the wall of container. This was repeated this ten times to ensure the mixture in homogenous. 100 μL of cells were then added to each pre-siliconized 1.7 ml Eppindorf tubes (Costar #3207) followed by a 60 min incubation at 37° C. and 5% CO2. This incubation was performed in 20-tube, round, floating racks (VWR #60986-100), which enable a quick transfer of the samples to a water bath, and the ability to mix several samples simultaneously. Following the incubation, 1 μL of the compound in DMSO was added (or just DMSO for controls). The cells were mixed before and after adding the compound, by a brief (and light) vortexing. The compounds were added while the cells were in the 37° C. water bath, followed by a 10 min incubation at 37° C. and 5% CO2. Following this incubation, 1 μL it of IBMX or 1 μL of IBMX+Forskolin was added with Repeat Pipettor. The 4-4 cells receive the IBMX to a final concentration of 500 μM IBMX. […] Both the IBMX mix (for 4-4 cells), and the IBMX/FSK mix (for 293T cells) were 100×, and were dissolved in DMSO. Cells were mixed and incubated at 37° C. and 5% CO2 for 15 min. The assay was stopped by placing the cells in an ice bath. Cells were pelleted by centrifugation at 2000×G for 7 min at 4° C. The supernatant was aspirated and 250 μL of 0.1 N HCl was added to each cell pellet followed by through vortexing for 1 min. Following a 10 min incubation at room temperature, 30 μL of each sample was added to 70 μL of 0.1 N HCl and the cAMP levels were measured using the protocol for the Direct Cyclic AMP Kit (Assay Designs, Inc. #901-066). This 30 μL plus 70 μL of 0.1 N HCl makes up the sample described in step 5 of the Assay Designs' protocol. The samples should lie in the linear range of the assay.

[3] = system: endogenous transmembrane adenylyl cyclases; assay: cellular cAMP accumulation assay in 293T cells + IBMX + forskolin; type: cell-based, human; conditions: for IC50: 293T cells, 500 μM IBMX and 10 μM forskolin, endogenous tmAC activity, read-out: 293T + FSK
Procedure: 293T cells or 4-4 cells (hsACt stably transfected into 293T) were grown in 75 cm2 Tissue Culture Flasks until nearly confluent using DMEM (10% FBS, 1% L-Glutamine, 1% Penicillin/Streptomycin). Cells were released from the flask with 3 ml of trypsin followed by addition of 7 ml of DMEM to neutralize the trypsin. Cells were mixed by pipetting up and down with 10 ml serological pipette. To a 3 ml aliquot of the cell mixture, 6 ml of DMEM (prewarmed to 37° C.) was added followed by thorough mixing by picking up the entire 9 mls using a repeat pipettor, and slowly pipetting out against the wall of container. This was repeated this ten times to ensure the mixture in homogenous. 100 μL of cells were then added to each pre-siliconized 1.7 ml Eppindorf tubes (Costar #3207) followed by a 60 min incubation at 37° C. and 5% CO2. This incubation was performed in 20-tube, round, floating racks (VWR #60986-100), which enable a quick transfer of the samples to a water bath, and the ability to mix several samples simultaneously. Following the incubation, 1 μL of the compound in DMSO was added (or just DMSO for controls). The cells were mixed before and after adding the compound, by a brief (and light) vortexing. The compounds were added while the cells were in the 37° C. water bath, followed by a 10 min incubation at 37° C. and 5% CO2. Following this incubation, 1 μL it of IBMX or 1 μL of IBMX+Forskolin was added with Repeat Pipettor. The 4-4 cells receive the IBMX to a final concentration of 500 μM IBMX. The 293T cells receive IBMX and Forskolin to final concentration of 500 μM IBMX and 10 μM, respectively. Both the IBMX mix (for 4-4 cells), and the IBMX/FSK mix (for 293T cells) were 100×, and were dissolved in DMSO. Cells were mixed and incubated at 37° C. and 5% CO2 for 15 min. The assay was stopped by placing the cells in an ice bath. Cells were pelleted by centrifugation at 2000×G for 7 min at 4° C. The supernatant was aspirated and 250 μL of 0.1 N HCl was added to each cell pellet followed by through vortexing for 1 min. Following a 10 min incubation at room temperature, 30 μL of each sample was added to 70 μL of 0.1 N HCl and the cAMP levels were measured using the protocol for the Direct Cyclic AMP Kit (Assay Designs, Inc. #901-066). This 30 μL plus 70 μL of 0.1 N HCl makes up the sample described in step 5 of the Assay Designs' protocol. The samples should lie in the linear range of the assay.

[4] = system: P. aeruginosa CyaB (a Class III adenylyl cyclase); assay: Pseudomonas adenylyl cyclase assay with purified His-CyaB; type: biochemical, Pseudomonas aeruginosa; conditions: increasing concentrations of compound, FIG. 1 / FIG. 2
Procedure: (§2) FIG. 1. […] The CyaB was heterologously expressed in E. coli as a poly-histidine tagged fusion protein and purified using a nickel column. Adenylyl cyclase activity was determined by measuring cyclic AMP levels using the Correlate-EIA Direct Cyclic AMP assay kit from Assay Designs as per manufacturers instructions.
as §2, with “2.” for “1.”
P. aeruginosa CyaB (a Class III adenylyl cyclase) was heterologously expressed in E. coli as a HIS-tagged, fusion protein. Expression of the fusion protein was induced by Isopropyl β-D-1-thiogalactopyranoside (IPTG) t at 21° C. (empirically found to be best temperature for expression). The His-CyaB fusion protein was purified using a nickel affinity column according to standard protocols in the absence of any reducing agent. Eluted protein was dialyzed into storage buffer consisting of: 50 mM Tris (pH 8.5), 10 mM NaCl, 2 mM MgCl2, and 25% glycerol.
The purified CyaB was assayed for cyclase activity as follows. […]
as §1

[5] = BASAL human sAC in vitro activity, read-out: % Inhibition (100 μM), hsACt-Basal
[6] = stimulated human sAC in vitro activity, read-out: % Inhibition (100 μM), hsACt-Stim.
[7] = BASAL activity of human sAC in vitro (just Mg-ATP, no calcium or bicarbonate), read-out: hsACt-Basal approximate IC50 (or the dose range where the IC50 should lie)
[8] = stimulated activity of human sAC in vitro (calcium and bicarbonate stimulated), read-out: hsACt-Stim. approximate IC50 (or the dose range where the IC50 should lie)

SMILES	inhibition at 100 µM (human sAC [1]; [5]) [%]	inhibition at 100 µM (human sAC [1]; [6]) [%]	IC50 (human sAC [1]; [7]) [µM]	IC50 (human sAC [1]; [8]) [µM]	IC50 (human sAC [2]) [µM]	IC50 [3] [µM]	cellular toxicity remark, 4-4 Basal (human sAC [2]; 4-4 cells)	cellular toxicity remark, 293T + FSK ([3]; 293T cells + FSK)	effect on CyaB adenylyl cyclase activity [4]
CC(Sc1nc2ccccc2[nH]1)C(=O)N/N=C/c1ccc([N+](=O)[O-])cc1 (centres unmarked) [KH7.101]	50	50	10 to 100	10 to 100	30	> 120			
O=C(CSc1nc2ccccc2[nH]1)NCCc1ccccc1 [KH7.102]	0	0	> 100	> 100	100	> 500			
O=C(CSc1nc2ccccc2[nH]1)N/N=C/c1cc(Br)ccc1O [KH7.103]	100	100	10 to 100	10 to 100	60 to 120	> 120			
O=C(CSc1nc2ccccc2[nH]1)N/N=C/c1cccc(Br)c1 [KH7.104]	70	85	10 to 100	10 to 100	15	60 to 120			
O=C(CSc1nc2ccccc2[nH]1)N/N=C/c1ccc(Cl)cc1Cl [KH7.105]	90	90	10 to 100	10 to 100	15	60			
COc1ccc(/C(C)=N\NC(=O)CSc2nc3ccccc3[nH]2)cc1 [KH7.106]						> 500			
C/C(=N\NC(=O)CSc1nc2ccccc2[nH]1)c1ccc(Br)cc1 [KH7.107]	95	95	10 to 100	10 to 100	60 to 120	> 120			
C/C(=N\NC(=O)CSc1nc2ccccc2[nH]1)c1ccccc1 [KH7.108]	0	0	> 100	> 100	30 to 60	60 to 120	may be cellular toxicity	may be cellular toxicity	
C/C(=N\NC(=O)CSc1nc2ccccc2[nH]1)c1ccco1 [KH7.109]	0	0	> 100	> 100	~120	> 120			
C/C(=N\NC(=O)CSc1nc2ccccc2[nH]1)c1ccc(Cl)cc1 [KH7.110]	90	90	10 to 100	10 to 100	30 to 60	> 120			
CCCOc1ccc(/C=N/NC(=O)CSc2nc3ccccc3[nH]2)cc1 [KH7.111]	70	70	10 to 100	10 to 100	3 to 30	120			
COc1cc(/C(C)=N\NC(=O)CSc2nc3ccccc3[nH]2)ccc1O [KH7.114]	0	0	> 100	> 100	56 to 167	> 500			
C/C(=N/NC(=O)CSc1nc2ccccc2[nH]1)c1ccncc1 [KH7.117]	0	0	> 100	> 100	167 to 500	> 500			
COc1ccc(C2=NN(C(=O)CSc3nc4ccccc4[nH]3)C(c3ccc(F)cc3)C2)cc1 (centres unmarked) [KH7.120]	90	90	10 to 100	10 to 100					activator; also recorded: increase in the activity
